Source: patent US20250090540A1, “PI3K-ALPHA INHIBITORS AND METHODS OF USE THEREOF” (Relay Therapeutics, Inc., priority 2021, published 2025)

biological target: H1047R PIK3CA enzyme (Homo sapiens, UniProt P42336, H1047R); test: ADP-Glo Biochemical PIK3CA Kinase Assay; conditions: not given
Sequence (P42336 whole entry H1047R): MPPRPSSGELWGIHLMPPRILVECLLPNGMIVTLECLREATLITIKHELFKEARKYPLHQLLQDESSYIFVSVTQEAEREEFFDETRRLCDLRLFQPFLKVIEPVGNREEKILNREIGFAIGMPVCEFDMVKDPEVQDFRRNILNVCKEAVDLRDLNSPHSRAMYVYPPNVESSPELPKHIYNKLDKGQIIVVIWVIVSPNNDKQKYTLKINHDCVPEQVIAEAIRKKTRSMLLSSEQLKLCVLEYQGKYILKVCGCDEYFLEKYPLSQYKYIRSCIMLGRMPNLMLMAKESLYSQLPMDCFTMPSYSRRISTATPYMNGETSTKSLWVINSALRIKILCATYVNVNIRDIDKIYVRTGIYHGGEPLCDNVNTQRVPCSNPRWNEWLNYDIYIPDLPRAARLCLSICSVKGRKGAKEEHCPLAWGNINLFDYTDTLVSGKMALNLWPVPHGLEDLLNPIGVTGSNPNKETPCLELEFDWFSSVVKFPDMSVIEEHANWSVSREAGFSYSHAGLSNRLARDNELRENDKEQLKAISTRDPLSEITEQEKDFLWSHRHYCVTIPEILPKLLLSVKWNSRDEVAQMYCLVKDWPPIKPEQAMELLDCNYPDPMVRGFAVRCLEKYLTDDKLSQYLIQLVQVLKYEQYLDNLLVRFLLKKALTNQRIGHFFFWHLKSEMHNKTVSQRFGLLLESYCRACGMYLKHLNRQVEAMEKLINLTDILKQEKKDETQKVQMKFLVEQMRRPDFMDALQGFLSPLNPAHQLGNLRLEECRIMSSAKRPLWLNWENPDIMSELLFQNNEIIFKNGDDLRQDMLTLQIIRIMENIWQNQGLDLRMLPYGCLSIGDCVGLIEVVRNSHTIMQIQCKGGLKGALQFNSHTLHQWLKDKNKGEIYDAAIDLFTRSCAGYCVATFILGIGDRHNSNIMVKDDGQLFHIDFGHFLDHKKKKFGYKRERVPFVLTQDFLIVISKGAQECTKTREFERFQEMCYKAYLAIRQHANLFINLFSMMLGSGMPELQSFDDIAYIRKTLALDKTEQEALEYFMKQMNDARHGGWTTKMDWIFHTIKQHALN
Sequence (P27986 whole entry partner): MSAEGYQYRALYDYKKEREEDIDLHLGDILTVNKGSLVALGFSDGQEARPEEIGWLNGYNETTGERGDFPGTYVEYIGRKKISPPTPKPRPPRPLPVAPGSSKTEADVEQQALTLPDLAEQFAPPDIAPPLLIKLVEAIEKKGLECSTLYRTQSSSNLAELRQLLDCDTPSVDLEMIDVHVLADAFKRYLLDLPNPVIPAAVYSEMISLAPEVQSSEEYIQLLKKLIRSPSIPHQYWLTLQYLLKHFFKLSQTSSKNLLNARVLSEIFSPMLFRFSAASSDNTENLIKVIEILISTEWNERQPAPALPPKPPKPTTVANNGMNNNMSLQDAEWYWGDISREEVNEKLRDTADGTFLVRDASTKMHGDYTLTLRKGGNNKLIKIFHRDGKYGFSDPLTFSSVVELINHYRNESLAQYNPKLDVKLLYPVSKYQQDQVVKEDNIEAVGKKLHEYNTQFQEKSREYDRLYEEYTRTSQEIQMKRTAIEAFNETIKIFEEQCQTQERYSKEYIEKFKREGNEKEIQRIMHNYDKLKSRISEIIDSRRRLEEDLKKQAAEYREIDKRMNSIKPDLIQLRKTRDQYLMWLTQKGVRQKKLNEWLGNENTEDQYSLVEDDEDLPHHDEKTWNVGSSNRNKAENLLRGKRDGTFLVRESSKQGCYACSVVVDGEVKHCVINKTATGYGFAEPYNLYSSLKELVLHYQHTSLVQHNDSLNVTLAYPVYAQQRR

Compound	IC50 [µM]
CNC(=O)c1cnc(Nc2ccccc2C)c(NC(=O)c2csc3ccccc23)c1 [I-41]	0.1 to 0.5
Cc1ccccc1Nc1ncc(-c2ccc(C#N)cc2)cc1NC(=O)c1cc(F)cc(C(F)(F)F)c1 [I-46]	0.1 to 0.5
Cc1ccccc1Nc1ncc(CNS(=O)(=O)c2ccccc2)cc1NC(=O)c1cc(F)cc(C(F)(F)F)c1 [I-307]	0.1 to 0.5
O=C(NCc1nccs1)c1cnc(N2CCCc3ccccc32)c(NC(=O)c2csc3ccccc23)c1 [I-181]	0.1 to 0.5
CNC(=O)c1cnc(Nc2cccc(F)c2OC)c(NC(=O)c2cc(F)cc(C(F)(F)F)c2)c1 [I-303]	1 to 10
CNC(=O)c1cnc(Nc2ccccc2C(C)C)c(NC(=O)c2cc(F)cc(C(F)(F)F)c2)c1 [I-298]	1 to 10
Cc1ccccc1Nc1ncc(C(=O)NCC2CCCO2)cc1NC(=O)c1csc2ccccc12 (stereo not drawn) [I-195]	0.1 to 0.5
CNC(=O)c1cnc(Nc2ccccc2C)c(NC(=O)c2cc(F)cc(Br)c2)c1 [I-2]	0.5 to 1
CNC(=O)N1CC[C@@H](Nc2ccccc2C)[C@H](C(=O)Nc2cc(F)cc(C(F)(F)F)c2)C1 (racemic) [I-229]	10 to 100
CNC(=O)c1cnc(N2c3ccccc3CCC2C)c(NC(=O)c2csc3ccccc23)c1 (stereo not drawn) [I-218]	10 to 100
O=C1NCc2ccccc2C1c1ccccc1-c1nc2c(F)cc(C(F)(F)F)cc2[nH]1 (stereo not drawn) [I-820, 4-{2-[4-fluoro-6-(trifluoromethyl)-1H-1,3-benzodiazol-2-yl]phenyl}-1,2,3,4-tetrahydroisoquinolin-3-one]	10 to 100
Cc1ccccc1Nc1ncc(-c2cnn(C)c2)cc1NC(=O)c1ccccc1O [I-130]	10 to 100
CNC(=O)c1cnc(Nc2cccc(C)c2)c(NC(=O)c2cc(F)cc(C(F)(F)F)c2)c1 [I-39]	1 to 10
Cc1ccccc1Nc1ncc(-c2cnn(C)c2)cc1NC(=O)c1ccc(OC(F)(F)F)cc1 [I-122]	10 to 100
Cc1ccccc1Nc1ncc(-c2cnn(C)c2)cc1NC(=O)c1cc(F)cc(C(F)(F)F)c1 [I-9]	10 to 100
CNC(=O)c1cnc(Nc2cc(F)ccc2Cl)c(NC(=O)NC23C[C@H]4C[C@@H](C2)C[C@@H](C3)C4)c1 [I-799]	10 to 100
CNC(=O)c1cnc(Nc2ccc(C)cc2)c(NC(=O)c2csc3ccccc23)c1 [I-226]	10 to 100
CNC(=O)c1cnc(Nc2ccccc2C)c(NC(=O)c2c[nH]c3cccc(OC)c23)c1 [I-370]	10 to 100
Cn1cc(NC(=O)c2cc(F)cc(C(F)(F)F)c2)c(N2CCOc3ccccc32)cc1=O [I-273]	1 to 10
Cc1ccccc1Nc1ncc(-c2cnn(C)c2)cc1NC(=O)c1cccc2cnccc12 [I-119]	10 to 100
Cc1ccccc1Nc1ncc(-c2cnn(C)c2)cc1NC(=O)c1cc2ccccc2n1C [I-132]	1 to 10
CNC(=O)c1cnc(Nc2ccccc2C)c(NC(=O)c2csc3c2CCC3)c1 [I-341]	1 to 10

Compound	IC50 [µM]
Cc1ccccc1Nc1ncc(-c2cnn(C3CCNCC3)c2)cc1NC(=O)c1cc(F)cc(C(F)(F)F)c1 [I-91]	0.5 to 1
CN1CC[C@H](NC(=O)c2cnc(N3CCOc4ccccc43)c(NC(=O)c3csc4ccccc34)c2)C1 (racemic) [I-349]	0.5 to 1
Cc1ccc(NC(=O)c2cc(F)cc(C(F)(F)F)c2)c(Nc2ccccc2C)n1 [I-59]	1 to 10
Cc1ccccc1Nc1ncc(C(=O)Nc2ccccc2)cc1NC(=O)c1cc(F)cc(C(F)(F)F)c1 [I-231]	1 to 10
O=C(N[C@@H]1CCC[C@H](O)[C@H]1c1cc(F)ccc1Cl)c1cc(F)cc(C(F)(F)F)c1 (racemic) [I-823, N-[(1R,2S,3S)-2-(2-chloro-5-fluorophenyl)-3-hydroxycyclohexyl]-3-fluoro-5-(trifluoromethyl)benzamide]	10 to 100
CNC(=O)c1cnc(Nc2ccccc2)c(N)c1 [I-31]	10 to 100
CNC(=O)c1cnc(Nc2ccccc2C)c(Nc2cc(F)c3cn[nH]c3c2)c1 [I-327]	10 to 100
Cc1ccccc1Nc1ncc(-c2cnn(C)c2)cc1NC(=O)c1ccc(Cl)c(Cl)c1 [I-104]	1 to 10
CNC(=O)c1cnc(Nc2ccccc2C)c(NC(=O)Cc2cccc(Cl)c2)c1 [I-35]	10 to 100
CNC(=O)c1cnc(Nc2ccccc2C)c(NC(=O)c2ccc3c(n2)CCCN3)c1 [I-205]	10 to 100
CNC(=O)c1cnc(Nc2ccccc2C)c(NC(=O)c2cnn(C)c2C(F)(F)F)c1 [I-385]	10 to 100
CNC(=O)c1cnc(Nc2ccccc2CN)c(NC(=O)c2csc3ccccc23)c1 [I-214]	10 to 100
Cc1ccccc1N[C@H]1CCN(C2CCC2)C[C@H]1C(=O)Nc1cc(F)cc(C(F)(F)F)c1 (racemic) [I-252]	10 to 100
CNC(=O)c1cnc(NC2CCCC2)c(NC(=O)c2cc(F)cc(C(F)(F)F)c2)c1 [I-360]	10 to 100
Cc1ccccc1Nc1ncc(CO)cc1NC(=O)c1cc(F)cc(C(F)(F)F)c1 [I-63]	1 to 10
O=C(NC1CS(=O)(=O)C1)c1cnc(N2CCCOc3ccccc32)c(NC(=O)c2csc3ccccc23)c1 [I-277]	10 to 100
Cc1ccccc1Nc1ncc(C(=O)Nc2ccncn2)cc1NC(=O)c1cc(F)cc(C(F)(F)F)c1 [I-262]	0.5 to 1
CNC(=O)c1cnc(Nc2ccccc2C)c(NC(=O)c2csc(Cl)c2Cl)c1 [I-213]	10 to 100
CNC(=O)c1cnc(Nc2ccccc2C)c(NC(=O)Cc2cccnc2)c1 [I-250]	10 to 100
Cc1ccccc1Nc1ncc(-c2cnn(C)c2)cc1NC(=O)c1ccc2cc[nH]c2c1 [I-103]	10 to 100
CNC(=O)c1cnc(Nc2ccccc2C)c(NC(=O)c2cccnc2C(F)(F)F)c1 [I-371]	10 to 100

same assay, conditions: ADP-Glo biochemical PIK3CA kinase assay

Compound	IC50 [µM]
Cc1ccccc1Nc1ncc(C(=O)NCC2(C#N)CC2)cc1NC(=O)c1cc(F)cc(C(F)(F)F)c1 [I-750]	0.1 to 0.5
Cc1ccccc1Nc1ncc(C(=O)NCC(O)C2CCCC2)cc1NC(=O)c1csc2ccccc12 (stereo not drawn) [I-610]	0.1 to 0.5
CNC(=O)c1cnc(Nc2ccccc2C)c(NC(=O)c2cc(C)nn2C(F)F)c1 [I-450]	10 to 100
CCOc1c(F)c(F)cc(C(=O)Nc2cc(C(=O)NC)cnc2Nc2ccccc2C)c1F [I-512]	10 to 100
CNC(=O)c1cnc(Nc2ccccc2C)c(NC(=O)c2ccc3ncc(Br)n3c2)c1 [I-575]	0.5 to 1
CC(C)(O)c1cnc(Nc2cc(F)ccc2Cl)c(NC(=O)c2cc(F)cc(C(F)(F)F)c2)c1 [I-782]	1 to 10
CNC(=O)c1cnc(Nc2cccc3[nH]ccc23)c(NC(=O)c2csc3ccccc23)c1 [I-768]	0.5 to 1
CNC(=O)c1cnc(Nc2ccccc2C)c(NC(=O)c2cc3c(Br)cccc3[nH]2)c1 [I-485]	10 to 100
CNC(=O)c1cnc(Nc2ccccc2C)c(NC(=O)c2ccc(F)c(F)c2)c1 [I-722]	1 to 10
Cc1ccccc1Nc1ncc(C(=O)N2CC(C)(F)C2)cc1NC(=O)c1csc2ccccc12 [I-536]	1 to 10
CNC(=O)c1cnc(Nc2ccccc2C)c(NC(=O)c2cnc3c(Cl)cccn23)c1 [I-414]	10 to 100
CNC(=O)c1cnc(Nc2ccccc2C)c(NC(=O)c2nc3cccc(C(F)(F)F)n3n2)c1 [I-642]	1 to 10
CNC(=O)c1cnc(Nc2ccccc2C)c(NC(=O)c2c[nH]c3ccc(Cl)cc23)c1 [I-514]	10 to 100
CNC(=O)c1cnc(Nc2cccnc2OC)c(NC(=O)c2csc3ccccc23)c1 [I-400]	10 to 100
CNC(=O)c1cnc(Nc2ccc3cnn(C)c3c2)c(NC(=O)c2csc3ccccc23)c1 [I-736]	1 to 10
CNC(=O)c1cnc(Nc2ccccc2C)c(NC(=O)c2cccc(C#N)c2Cl)c1 [I-466]	10 to 100
CNC(=O)c1cnc(Nc2ccccc2C)c(NC(=O)CCc2c[nH]c3ccc(F)cc23)c1 [I-459]	10 to 100
CNC(=O)c1cnc(Nc2ccccc2C)c(NC(=O)c2cc3ccccc3n2C)c1 [I-505]	10 to 100

Compound	IC50 [µM]
Cc1ccccc1Nc1ncc(C(=O)N[C@H]2C[C@@H](C(=O)N(C)C)C2)cc1NC(=O)c1csc2ccccc12 [I-694]	1 to 10
CCOC(=O)[C@H]1CC[C@@H](NC(=O)c2cnc(Nc3ccccc3C)c(NC(=O)c3csc4ccccc34)c2)C1 (racemic) [I-653]	0.5 to 1
Cc1ccccc1Nc1c(NC(=O)c2csc3ccccc23)ccc2cc[nH]c12 [I-552]	1 to 10
CNC(=O)c1cnc(Nc2ccccc2C)c(NC(=O)CCc2ccncc2C)c1 [I-643]	1 to 10
CNC(=O)c1cnc(Nc2cc(F)ccc2Cl)c(NC(=O)N2CCc3ccccc32)c1 [I-797, N-{2-[(2-chloro-5-fluorophenyl)amino]-5-(methylcarbamoyl)pyridin-3-yl}-2,3-dihydro-1H-indole-1-carboxamide]	10 to 100
CNC(=O)c1cnc(Nc2ccccc2C)c(NC(=O)c2ccc3cnccc3n2)c1 [I-645]	1 to 10
CNC(=O)c1cnc(Nc2ccccc2C)c(NC(=O)Cc2cc3cccnc3cc2F)c1 [I-557]	1 to 10
Cc1ccccc1Nc1ncc(C(=O)NCC(C)(C)O)cc1NC(=O)c1csc2ccccc12 [I-565]	1 to 10
CNC(=O)c1cnc(Nc2ccccc2C)c(NC(=O)c2cc(C)cc(F)c2F)c1 [I-491]	10 to 100
O=C(NC1CC(F)(F)C1)c1cnc(Nc2ccccc2Cl)c(NC(=O)c2csc3ccccc23)c1 [I-641]	1 to 10
CNC(=O)c1cnc(Nc2ccccc2C)c(NC(=O)c2n[nH]c3cccc(F)c23)c1 [I-426]	1 to 10
Cc1ccccc1Nc1ncc(C(=O)NCc2nnc3ccccn23)cc1NC(=O)c1cc(F)cc(C(F)(F)F)c1 [I-759]	1 to 10
CNC(=O)c1cnc(Nc2ccccc2C)c(NC(=O)Cc2csc3ccccc23)c1 [I-410]	10 to 100
CNC(=O)c1cnc(Nc2ccccc2C)c(NC(=O)C2(c3cccc(Br)c3)CC2)c1 [I-503]	10 to 100
N#Cc1cccc(NC(=O)c2cc(F)cc(C(F)(F)F)c2)c1Cc1ccccc1Cl [I-793]	0.1 to 0.5
CNC(=O)c1cnc(Nc2ccc3c(c2)N(C)C(=O)CO3)c(NC(=O)c2csc3ccccc23)c1 [I-744]	1 to 10
Cc1ccccc1CNc1cccc(=O)n1Cc1ccccc1C [I-433]	10 to 100

system: not listed separately; test: cells; conditions: Homo sapiens, MCF-10A, read-out: MCF10A I50

Compound	IC50 [µM]
CNC(=O)c1cnc(Nc2ccccc2C)c(NC(=O)c2csc3ccccc23)c1 [I-41]	10 to 36
Cc1ccccc1Nc1ncc(-c2ccc(C#N)cc2)cc1NC(=O)c1cc(F)cc(C(F)(F)F)c1 [I-46]	1 to 5
Cc1ccccc1Nc1ncc(CNS(=O)(=O)c2ccccc2)cc1NC(=O)c1cc(F)cc(C(F)(F)F)c1 [I-307]	1 to 5
O=C(NCc1nccs1)c1cnc(N2CCCc3ccccc32)c(NC(=O)c2csc3ccccc23)c1 [I-181]	10 to 36
CNC(=O)c1cnc(Nc2cccc(F)c2OC)c(NC(=O)c2cc(F)cc(C(F)(F)F)c2)c1 [I-303]	36 to 100
CNC(=O)c1cnc(Nc2ccccc2C(C)C)c(NC(=O)c2cc(F)cc(C(F)(F)F)c2)c1 [I-298]	36 to 100
Cc1ccccc1Nc1ncc(C(=O)NCC2CCCO2)cc1NC(=O)c1csc2ccccc12 (stereo not drawn) [I-195]	10 to 36
Cc1ccccc1Nc1ncc(C(=O)NCC2(C#N)CC2)cc1NC(=O)c1cc(F)cc(C(F)(F)F)c1 [I-750]	5 to 10
Cc1ccccc1Nc1ncc(C(=O)NCC(O)C2CCCC2)cc1NC(=O)c1csc2ccccc12 (stereo not drawn) [I-610]	10 to 36
